Measurements: ChEMBL document CHEMBL1128020, “Synthesis and sar of 2h-1,2,4-benzothiadiazine-1,1-dioxide-3-carboxylic acid derivatives as novel potent glycine antagonists of the nmda receptor-channel complex” (Bioorg Med Chem Lett, 1994)

Target: Glutamate receptor 4 (Homo sapiens, UniProt P48058)
Assay: Binding affinity against AMPA receptor using [3H]AMPA as the radioligand.

Chain of Glutamate receptor 4 (P48058 whole entry): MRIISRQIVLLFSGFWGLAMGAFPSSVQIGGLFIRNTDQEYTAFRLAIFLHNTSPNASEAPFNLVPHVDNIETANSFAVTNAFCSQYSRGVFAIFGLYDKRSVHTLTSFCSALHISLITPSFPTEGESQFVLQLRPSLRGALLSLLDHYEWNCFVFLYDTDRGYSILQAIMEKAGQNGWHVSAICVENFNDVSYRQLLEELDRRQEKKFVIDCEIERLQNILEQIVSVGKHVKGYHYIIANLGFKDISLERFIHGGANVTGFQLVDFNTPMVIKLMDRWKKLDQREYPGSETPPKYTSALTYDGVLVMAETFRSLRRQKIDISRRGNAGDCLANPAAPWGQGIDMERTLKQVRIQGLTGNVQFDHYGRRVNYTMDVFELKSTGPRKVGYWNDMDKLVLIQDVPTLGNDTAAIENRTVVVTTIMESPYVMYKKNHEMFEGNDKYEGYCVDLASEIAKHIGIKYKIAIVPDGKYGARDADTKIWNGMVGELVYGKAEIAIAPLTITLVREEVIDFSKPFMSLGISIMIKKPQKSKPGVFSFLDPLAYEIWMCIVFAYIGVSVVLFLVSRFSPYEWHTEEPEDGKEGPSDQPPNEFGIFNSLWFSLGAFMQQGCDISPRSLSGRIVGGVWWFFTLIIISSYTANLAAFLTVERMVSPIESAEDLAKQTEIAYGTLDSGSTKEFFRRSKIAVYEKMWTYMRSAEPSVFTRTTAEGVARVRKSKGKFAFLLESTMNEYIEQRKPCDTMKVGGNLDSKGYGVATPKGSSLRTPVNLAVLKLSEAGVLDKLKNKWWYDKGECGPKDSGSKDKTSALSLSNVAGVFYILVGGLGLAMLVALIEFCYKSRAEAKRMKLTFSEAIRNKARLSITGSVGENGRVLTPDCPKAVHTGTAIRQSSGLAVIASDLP

Question: Which IC50 does the source give for O=C(O)C1Nc2cc(Cl)cc(Cl)c2S(=O)(=O)N1Cc1cccc(Br)c1 (stereo not given) here?
Answer: 38000 nM

Target: Glutamate NMDA receptor
Assay: Binding affinity at the glycine binding site of the N-methyl-D-aspartate glutamate receptor in rat cortical membranes using [3H]dichlorokynurenate ([3H]DCKA) as radioligand
Type: cell membranes, Membrane

Question: How did the IC50 turn out when O=C(O)CCc1c(C(=O)O)[nH]c2cc(Cl)cc(Cl)c12 was run?
Answer: 50 nM

Question: For CCOC(=O)C1Nc2cc(Cl)cc(Cl)c2S(=O)(=O)N1C (stereo not given), which IC50 is on record?
Answer: 400 nM

Question: How did the IC50 turn out when CCOC(=O)C1Nc2cc(Cl)cc(Cl)c2S(=O)(=O)N1Cc1cccc(C)c1 (stereo not given) was run?
Answer: 14 nM

Question: For CCOC(=O)C1Nc2cc(Cl)cc(Cl)c2S(=O)(=O)N1Cc1cccc(Oc2ccccc2)c1 (stereo not given), which IC50 is on record?
Answer: 9 nM

Question: How did the IC50 turn out when O=C(O)C1Nc2cc(Cl)cc(Cl)c2S(=O)(=O)N1Cc1cccc(I)c1 (stereo not given) was run?
Answer: 8 nM

Question: Which IC50 does the source give for CCOC(=O)C1Nc2cc(Cl)cc(Cl)c2S(=O)(=O)N1Cc1cccc(C#N)c1 (stereo not given) here?
Answer: 17 nM

Question: CCOC(=O)C1Nc2cc(Cl)cc(Cl)c2S(=O)(=O)N1CCSc1ccccc1 (stereo not given) was tested. Which IC50 did it give?
Answer: 38 nM

Question: For O=C(O)C1Nc2cc(Cl)cc(Cl)c2S(=O)(=O)N1Cc1ccccc1C(F)(F)F (stereo not given), which IC50 is on record?
Answer: 100 nM

Question: For O=C(O)C1Nc2cc(Cl)cc(Cl)c2S(=O)(=O)N1Cc1ccccc1 (stereo not given), which IC50 is on record?
Answer: 48 nM

Question: Which IC50 does the source give for CCOC(=O)C1Nc2cc(Cl)cc(Cl)c2S(=O)(=O)N1Cc1ccc(F)cc1 (stereo not given) here?
Answer: 44 nM

Question: For O=C(O)C1Nc2cc(Cl)cc(Cl)c2S(=O)(=O)N1Cc1cccc(F)c1 (stereo not given), which IC50 is on record?
Answer: 13 nM

Question: With O=C(O)c1cc(O)c2c(Cl)cc(Cl)cc2n1 as the molecule, how does the IC50 read?
Answer: 46 nM

Question: With CCOC(=O)C1Nc2cc(Cl)cc(Cl)c2S(=O)(=O)N1Cc1cccc([N+](=O)[O-])c1 (stereo not given) as the molecule, how does the IC50 read?
Answer: 12 nM

Question: CCOC(=O)C1Nc2cc(Cl)cc(Cl)c2S(=O)(=O)N1Cc1ccc(C)cc1 (stereo not given) was tested. Which IC50 did it give?
Answer: 45 nM

Question: Which IC50 does the source give for CCOC(=O)C1Nc2cc(Cl)cc(Cl)c2S(=O)(=O)N1Cc1cccc(-c2ccccc2)c1 (stereo not given) here?
Answer: 20 nM

Question: Which IC50 does the source give for CCOC(=O)C1Nc2cc(Cl)cc(Cl)c2S(=O)(=O)N1Cc1ccc(OC)cc1 (stereo not given) here?
Answer: 40 nM

Question: How did the IC50 turn out when O=C(O)C1Nc2cc(Cl)cc(Cl)c2S(=O)(=O)N1CCCc1ccccc1 (stereo not given) was run?
Answer: 33 nM

Question: How did the IC50 turn out when O=C(O)C1Nc2cc(Cl)cc(Cl)c2S(=O)(=O)N1Cc1ccc(C(F)(F)F)cc1 (stereo not given) was run?
Answer: 92 nM

Question: With O=C(O)CN1C(C(=O)O)Nc2cc(Cl)cc(Cl)c2S1(=O)=O (stereo not given) as the molecule, how does the IC50 read?
Answer: 9500 nM

Question: O=C(O)C1Nc2cc(Cl)cc(Cl)c2S(=O)(=O)N1CCCCCc1ccccc1 (stereo not given) was tested. Which IC50 did it give?
Answer: 36 nM

Question: With O=C(O)C1Nc2cc(Cl)cc(Cl)c2S(=O)(=O)N1Cc1cccc(OC(F)(F)F)c1 (stereo not given) as the molecule, how does the IC50 read?
Answer: 20 nM

Question: How did the IC50 turn out when CCOC(=O)C1Nc2cc(Cl)cc(Cl)c2S(=O)(=O)N1Cc1cccc(OC)c1 (stereo not given) was run?
Answer: 12 nM

Question: CCOC(=O)C1Nc2cc(Cl)cc(Cl)c2S(=O)(=O)N1Cc1ccc(Cl)cc1 (stereo not given) was tested. Which IC50 did it give?
Answer: 20 nM

Question: For CCOC(=O)C1Nc2cc(Cl)cc(Cl)c2S(=O)(=O)N1Cc1ccccc1Cl (stereo not given), which IC50 is on record?
Answer: 48 nM

Question: CCOC(=O)C1Nc2cc(Cl)cc(Cl)c2S(=O)(=O)N1CC(=O)c1ccccc1 (stereo not given) was tested. Which IC50 did it give?
Answer: 22 nM

Question: How did the IC50 turn out when CCOC(=O)C1Nc2cc(Cl)cc(Cl)c2S(=O)(=O)N1CCOc1ccccc1 (stereo not given) was run?
Answer: 41 nM

Question: For O=C(O)C1Nc2cc(Cl)cc(Cl)c2S(=O)(=O)N1c1ccccc1 (stereo not given), which IC50 is on record?
Answer: 2600 nM

Question: How did the IC50 turn out when O=C(O)C1Nc2cc(Cl)cc(Cl)c2S(=O)(=O)N1CCS(=O)(=O)c1ccccc1 (stereo not given) was run?
Answer: 70 nM

Question: Which IC50 does the source give for CCOC(=O)C1Nc2cc(Cl)cc(Cl)c2S(=O)(=O)N1Cc1cccc(C(F)(F)F)c1 (stereo not given) here?
Answer: 18 nM

Question: For CCOC(=O)C1Nc2cc(Cl)cc(Cl)c2S(=O)(=O)N1Cc1cccc(N)c1 (stereo not given), which IC50 is on record?
Answer: 29 nM

Question: CCOC(=O)C1Nc2cc(Cl)cc(Cl)c2S(=O)(=O)N1Cc1cccc(Cl)c1 (stereo not given) was tested. Which IC50 did it give?
Answer: 11 nM

Question: For O=C(O)C1Nc2cc(Cl)cc(Cl)c2S(=O)(=O)N1CCc1ccccc1 (stereo not given), which IC50 is on record?
Answer: 90 nM

Question: With CCOC(=O)C1Nc2cc(Cl)cc(Cl)c2S(=O)(=O)N1Cc1ccccc1F (stereo not given) as the molecule, how does the IC50 read?
Answer: 26 nM

Question: With O=C(O)C1Nc2cc(Cl)cc(Cl)c2S(=O)(=O)N1CCCCc1ccccc1 (stereo not given) as the molecule, how does the IC50 read?
Answer: 77 nM

Question: How did the IC50 turn out when CCOC(=O)C1Nc2cc(Cl)cc(Cl)c2S(=O)(=O)N1Cc1ccccc1C (stereo not given) was run?
Answer: 80 nM

Question: For COc1ccccc1CN1C(C(=O)O)Nc2cc(Cl)cc(Cl)c2S1(=O)=O (stereo not given), which IC50 is on record?
Answer: 21 nM

Question: O=C(Nc1ccccc1)N[C@H]1C[C@H](C(=O)O)Nc2cc(Cl)cc(Cl)c21 (single isomer, unassigned) was tested. Which IC50 did it give?
Answer: 26 nM

Question: O=C(O)C1Nc2cc(Cl)cc(Cl)c2S(=O)(=O)N1Cc1cccc(Br)c1 (single isomer, unassigned; (-)) was tested. Which IC50 did it give?
Answer: 4 nM

Question: Which IC50 does the source give for O=C(O)C1Nc2cc(Cl)cc(Cl)c2S(=O)(=O)N1Cc1cccc(Br)c1 (stereo in doubt; (+)8k) here?
Answer: 1880 nM
